Assay [1] concerns Cuttings of Pelargonium interspecific: Calliope M Dark Red. As to the kind of experiment: Comparative trial of vacuum impregnation (VI) on unrooted Pelargonium cuttings: storage, rooting, losses, acceptability. In kind it is in vivo. The following applies: for % Losses after storage: stored at 8° C, losses before sticking; for % Losses / % Rooted / %Not rooted / % Acceptable YPL: 21 days after sticking; for % Acceptable YPL: YPL = young plant. An excerpt: Comparative trials were made to investigate the effect of a method according to the present invention, that is a method preferably involving vacuum impregnation and which definitely is free from any PEF step, and a method involving a PEF step, either alone or together with an impregnation step, and of course also compared with untreated control(s). Cuttings of Pelargonium interspecific: Calliope M Dark Red was used as the testing material. When testing the method according to the second aspect of the present invention, the following vacuum impregnation parameters (protocol) were used: A pressure falling time of 10 minutes, a holding time of the obtained low pressure of 1 minute and then 15 minutes rising time when the pressure was increased again to atmospheric pressure. The minimum pressure was set at 220 mbar and trehalose 10% was used as the impregnation solution. For the PEF trial and step (not according to the present invention), the parameters used were the following: 500 V in continuous system, 250 µs pulse width and 50 PPV (pulses per volume), 0.3 KW. For the group of cuttings that was subjected only to vacuum impregnation, that is by a method according to the present invention, an additional rinsing step was also performed. Moreover, each group tested consisted of 80 unrooted cuttings, and not any repetitions were performed. When the pelargonium cuttings were received they were processed immediately. After the treatment, the groups were placed in perforated trays and kept inside slightly opened boxes. The boxes were stored 7 days at 8° C. After 7 days of storage the cuttings were evaluated and counted. The damaged (due to Botrytis), rotten or withered ones are removed. These are called losses before sticking. The rooting, losses and acceptability results were obtained 21 days after sticking. […] It should be noted that data for losses after storage were obtained after […] of storage.

The subject of a further assay is Roses (variety: Athena). Kind of assay: Vacuum impregnation on roses, appearance during vase storage at room temperature. In kind it is in vivo. The following applies: fructose 2-15 wt%, VI without PEF, versus untreated control. An excerpt:
Roses (variety: Athena) were purchased form a local distributor. The roses were transported from Kenya. The roses arrived at the test site 4 days after harvest.
The treatment according to the present invention was applied to the roses immediately after the arrival. The roses were placed vertically in an impregnation solution, making sure that the flower bud was not immersed in the impregnation solution, thus only the stem and leaves were immersed. The impregnation solution contained sugar (fructose at a concentration of 2-15 wt%). Vacuum was applied reaching a minimum pressure range of 60 - 300 mbar, and with a total treatment time of about 12 minutes.
To continue with the trial performed, after that the vacuum impregnation treatment was finished, the roses were taken out from the impregnation solution. They were then immersed in water, again excluding the flower buds, to wash the sugars from the surface and then placed in a cold room for 24 hours to recover. They were in this case not dried in any way.
After 24 hours the roses were moved to room temperature in order to evaluate the results at the end user conditions. They were stored in a vase, with only the lower part of the stems immersed in water, and the water was renewed every two days.
Roses were stored at room temperature for 13 days after the treatment (Right: roses treated according to the present invention, left: control roses, i.e. not treated).

`OC[C@H]1O[C@H](O[C@H]2O[C@H](CO)[C@@H](O)[C@H](O)[C@H]2O)[C@H](O)[C@@H](O)[C@@H]1O` [Trehalose 10%, trehalose]: the “% Losses after storage” value in assay [1] (No PEF, only VI (220 mbar)) was 4%. In assay [1] (No PEF, only VI), the “% Losses” value stood at 0%, the “% Rooted” value was 88%, the “%Not rooted” value was 8% and the “% Acceptable YPL” value amounted to 46%. Further, in assay [1] (VI + PEF (500 V, 250 µs, 50 PPV)), the “% Losses after storage” value came to 0%. Also, in assay [1] (VI + PEF), the “% Losses” value is listed as 10%, the “% Rooted” value is reported as 75%, the “%Not rooted” value came to 15% and the “% Acceptable YPL” value is on record as 35%.
With `O=C(CO)[C@@H](O)[C@H](O)[C@H](O)CO` [sugar, fructose], the “general appearance of roses” value in the assay with Roses (variety: Athena) (stem and leaves immersed, 13 days at room temperature) is listed as “clear improvement”. In addition, in the assay on Roses (variety: Athena) (room temperature storage), the “browning and wilting of the flower buds” value is recorded as “delayed”; the “freshness of the treated leaves” value is “preserve freshness better”.

The record behind these values is patent publication US20230107926A1, “A METHOD FOR TREATING A BIOLOGICAL OBJECT” (OPTICEPT TECHNOLOGIES AB, priority 2020, published 2023).
